The target of the assay is T1, SIRT1 (Homo sapiens, UniProt Q96EB6).
T1 sequence (Q96EB6 1-747): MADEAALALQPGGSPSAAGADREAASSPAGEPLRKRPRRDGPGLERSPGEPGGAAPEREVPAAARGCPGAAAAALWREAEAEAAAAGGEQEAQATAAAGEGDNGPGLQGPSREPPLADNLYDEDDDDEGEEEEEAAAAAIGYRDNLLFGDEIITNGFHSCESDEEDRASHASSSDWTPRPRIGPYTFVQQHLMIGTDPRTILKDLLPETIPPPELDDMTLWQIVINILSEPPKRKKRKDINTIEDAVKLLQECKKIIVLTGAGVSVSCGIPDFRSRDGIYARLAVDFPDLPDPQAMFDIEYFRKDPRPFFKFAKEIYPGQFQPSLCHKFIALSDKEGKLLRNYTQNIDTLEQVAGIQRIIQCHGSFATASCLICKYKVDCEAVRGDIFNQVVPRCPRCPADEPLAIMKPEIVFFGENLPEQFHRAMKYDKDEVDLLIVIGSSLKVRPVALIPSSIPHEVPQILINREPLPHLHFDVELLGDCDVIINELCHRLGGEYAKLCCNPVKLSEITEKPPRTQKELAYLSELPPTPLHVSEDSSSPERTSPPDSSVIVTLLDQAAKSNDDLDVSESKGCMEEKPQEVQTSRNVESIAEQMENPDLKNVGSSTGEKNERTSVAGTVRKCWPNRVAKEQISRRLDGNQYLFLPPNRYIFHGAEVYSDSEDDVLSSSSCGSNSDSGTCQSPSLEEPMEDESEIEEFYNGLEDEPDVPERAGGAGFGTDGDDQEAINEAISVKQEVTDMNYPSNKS
Kind of assay: Trp mass spectrometry assay of SIRT1 activation. The format is biochemical. As to conditions: Trp peptide assay; for TRP Activity (EC1.5): EC1.5 = concentration that results in 150% activation of SIRT1; for Emax: maximum activity relative to control (100%), read-out: TRP MAX RESP (percent maximum fold activation). An excerpt:
Mass spectrometry based assays were used to identify modulators of SIRT1 activity. […] The peptide was labeled with the fluorophore STMR (excitation 540 nm/emission 580 nm) at the C-terminus. The sequence of the peptide substrate was based on p53 with several modifications. In addition, the methionine residue naturally present in the sequence was replaced with the norleucine because the methionine may be susceptible to oxidation during synthesis and purification. The Trp based assay utilized a peptide having an amino acid residues as follows: Ac-R-H-K-K(Ac)-W-NH2 (SEQ ID NO: 2).
The Trp mass spectrometry assay was conducted as follows. 0.5 μM peptide substrate and 120 μM βNAD^+ were incubated with 10 nM SIRT1 for 25 minutes at 25° C. in a reaction buffer (50 mM HEPES pH 7.5, […], 1 mM DTT, 0.05% BSA). The SIRT1 protein was obtained by cloning the SirT1 gene into a T7-promoter containing vector, which was then expressed in BL21(DE3) bacterial cells and purified as described in further detail below. Test compound was added at varying concentrations to this reaction mixture and the resulting reactions were monitored. After the 25 minute incubation with SIRT1, 10 μL of 10% formic acid was added to stop the reaction. The resulting reactions were sealed and frozen for later mass spec analysis. The relative SIRT1 activity was then determined by measuring the amount of O-acetyl-ADP-ribose (OAADPR) formed (or, alternatively, the amount of deacetylated Trp peptide generated) by the NAD-dependent sirtuin deacetylation reaction in the presence of varying concentrations of the test compound versus control reactions lacking the test compound. The degree to which the test agent activated deacetylation by SIRT1 was expressed as EC1.5 (i.e., the concentration of compound required to increase SIRT1 activity by 50% over the control lacking test compound), and Percent Maximum Activation (i.e., the maximum activity relative to control (100%) obtained for the test compound).
This time point was the same as that used for test compounds and, within the linear range, the endpoint represents a change in velocity.
For the above assay, SIRT1 protein was expressed and purified as follows. The SirT1 gene was cloned into a T7-promoter containing vector and transformed into BL21(DE3). The protein was expressed by induction with 1 mM IPTG as an N-terminal His-tag fusion protein at 18° C. overnight and harvested at 30,000×g. Cells were lysed with lysozyme in lysis buffer (50 mM Tris-HCl, 2 mM Tris[2-carboxyethyl]phosphine (TCEP), 10 μM ZnCl2, 200 mM NaCl) and further treated with sonication for 10 min for complete lysis. The protein was purified over a Ni-NTA column (Amersham) and fractions containing pure protein were pooled, concentrated and run over a sizing column (Sephadex S200 26/60 global). The peak containing soluble protein was collected and run on an Ion-exchange column (MonoQ). Gradient elution (200 mM-500 mM NaCl) yielded pure protein. This protein was concentrated and dialyzed against dialysis buffer (20 mM Tris-HCl, 2 mM TCEP) overnight. The protein was aliquoted and frozen at −80° C. until further use.
“NT” means not tested; “ND” means not determinable.

The structures appear in SMILES notation.

The record followed here is patent publication US9834558B2, “Substituted bridged urea analogs as sirtuin modulators” (GLAXOSMITHKLINE LLC, priority 2013, dated 2017).

For the molecule `CC1(C)CN(c2ccc3c(n2)N(C(=O)Nc2cnccn2)[C@H]2CCN3C2)CCO1` [(9S)-5-(2,2-dimethylmorpholin-4-yl)-N-(pyrazin-2-yl)-1,6,8-triazatricyclo[7.2.1.0 {2,7}]dodeca-2(7),3,5-triene-8-carboxamide], the “TRP Activity (EC1.5)” value is given as “A (A (EC1.5<1 μM))” and the Emax is more than 150%.

In the case of `Cc1cc(-c2ccc3c(n2)N(C(=O)Nc2cnccn2)[C@H]2CCN3C2)c(C)cn1` [(9S)-5-(2,5-dimethylpyridin-4-yl)-N-(pyrazin-2-yl)-1,6,8-triazatricyclo[7.2.1.0 {2,7}]dodeca-2,4,6-triene-8-carboxamide], the “TRP Activity (EC1.5)” value was “B (B (EC1.5 1-25 μM))” and the Emax was more than 150%.

Take `Cc1ccc(-c2ccc3c(n2)N(C(=O)Nc2cnccn2)[C@H]2CCN3C2)c(C)n1` [(9S)-5-(2,6-dimethylpyridin-3-yl)-N-(pyrazin-2-yl)-1,6,8-triazatricyclo[7.2.1.0 {2,7}]dodeca-2(7),3,5-triene-8-carboxamide]: the “TRP Activity (EC1.5)” value is “B (B (EC1.5 1-25 μM))” and the Emax was more than 150%.

Turning to `Cc1ccc(-c2ccc3c(n2)N(C(=O)Nc2cccnc2)[C@H]2CCN3C2)c(C)n1` [(9S)-5-(2,6-dimethylpyridin-3-yl)-N-(pyridin-3-yl)-1,6,8-triazatricyclo[7.2.1.0 {2,7}]dodeca-2(7),3,5-triene-8-carboxamide], the “TRP Activity (EC1.5)” value is reported as “B (B (EC1.5 1-25 μM))” and the Emax is more than 150%.

As to `Cc1cc(-c2ccc3c(n2)N(C(=O)Nc2cnccn2)[C@H]2CCN3C2)cc(C)n1` [(9S)-5-(2,6-dimethylpyridin-4-yl)-N-(pyrazin-2-yl)-1,6,8-triazatricyclo[7.2.1.0^{2,7}]dodeca-2,4,6-triene-8-carboxamide], the “TRP Activity (EC1.5)” value is “A (A (EC1.5<1 μM))” and the Emax is more than 150%.

As to `O=C(Nc1cnccn1)N1c2nc(N3CCOC(C4CC4)C3)ccc2N2CC[C@H]1C2` (stereo partly drawn) [(9S)-5-(2-cyclopropylmorpholin-4-yl)-N-(pyrazin-2-yl)-1,6,8-triazatricyclo[7.2.1.0 {2,7}]dodeca-2,4,6-triene-8-carboxamide], the “TRP Activity (EC1.5)” value was “B (B (EC1.5 1-25 μM))” and the Emax is more than 150%.

Take `O=C(Nc1cnccn1)N1c2nc(-c3ccnc(C4CC4)c3)ccc2N2CC[C@H]1C2` [(9S)-5-(2-cyclopropylpyridin-4-yl)-N-(pyrazin-2-yl)-1,6,8-triazatricyclo[7.2.1.0 {2,7}]dodeca-2,4,6-triene-8-carboxamide]: the “TRP Activity (EC1.5)” value is reported as “A (A (EC1.5<1 μM))” and the Emax is more than 150%.

With `CCOc1cc(-c2ccc3c(n2)N(C(=O)Nc2cnccn2)[C@H]2CCN3C2)ccn1` [(9S)-5-(2-ethoxypyridin-4-yl)-N-(pyrazin-2-yl)-1,6,8-triazatricyclo[7.2.1.0 {2,7}]dodeca-2(7),3,5-triene-8-carboxamide], the “TRP Activity (EC1.5)” value is recorded as “B (B (EC1.5 1-25 μM))” and the Emax is more than 150%.

For the molecule `CCc1cc(-c2ccc3c(n2)N(C(=O)Nc2cnccn2)[C@H]2CCN3C2)ccn1` [(9S)-5-(2-ethylpyridin-4-yl)-N-(pyrazin-2-yl)-1,6,8-triazatricyclo[7.2.1.0 {2,7}]dodeca-2(7),3,5-triene-8-carboxamide], the “TRP Activity (EC1.5)” value is “A (A (EC1.5<1 μM))” and the Emax is more than 150%.

Consider `COc1cc(-c2ccc3c(n2)N(C(=O)Nc2cnccn2)[C@H]2CCN3C2)cc(C)n1` [(9S)-5-(2-methoxy-6-methylpyridin-4-yl)-N-(pyrazin-2-yl)-1,6,8-triazatricyclo[7.2.1.0 {2,7}]dodeca-2(7),3,5-triene-8-carboxamide], for which the “TRP Activity (EC1.5)” value was “A (A (EC1.5<1 μM))” and the Emax is more than 150%.

Take `COc1cc(-c2ccc3c(n2)N(C(=O)Nc2cnccn2)[C@H]2CCN3C2)ccn1` [(9S)-5-(2-methoxypyridin-4-yl)-N-(pyrazin-2-yl)-1,6,8-triazatricyclo[7.2.1.0 {2,7}]dodeca-2(7),3,5-triene-8-carboxamide]: the “TRP Activity (EC1.5)” value was “B (B (EC1.5 1-25 μM))” and the Emax was more than 150%.

As to `Cc1ncc(-c2ccc3c(n2)N(C(=O)Nc2cnccn2)[C@H]2CCN3C2)o1` [(9S)-5-(2-methyl-1,3-oxazol-5-yl)-N-(pyrazin-2-yl)-1,6,8-triazatricyclo[7.2.1.0 {2,7}]dodeca-2(7),3,5-triene-8-carboxamide], the “TRP Activity (EC1.5)” value is “B (B (EC1.5 1-25 μM))” and the Emax was more than 150%.

As for `Cc1ncc(-c2ccc3c(n2)N(C(=O)Nc2cnccn2)[C@H]2CCN3C2)s1` [(9S)-5-(2-methyl-1,3-thiazol-5-yl)-N-(pyrazin-2-yl)-1,6,8-triazatricyclo[7.2.1.0 {2,7}]dodeca-2(7),3,5-triene-8-carboxamide], the “TRP Activity (EC1.5)” value is listed as “B (B (EC1.5 1-25 μM))” and the Emax is more than 150%.

Regarding `Cc1cc(-c2ccc3c(n2)N(C(=O)N2CCOCC2)[C@H]2CCN3C2)ccn1` [(9S)-5-(2-methylpyridin-4-yl)-8-[(morpholin-4-yl)carbonyl]-1,6,8-triazatricyclo[7.2.1.0 {2,7}]dodeca-2,4,6-triene], the “TRP Activity (EC1.5)” value was “C (C (EC1.5>25 μM))” and the Emax is less than 150%.

Turning to `Cc1cc(-c2ccc3c(n2)N(C(=O)N2CCCCC2)[C@H]2CCN3C2)ccn1` [(9S)-5-(2-methylpyridin-4-yl)-8-[(piperidin-1-yl)carbonyl]-1,6,8-triazatricyclo[7.2.1.0 {2,7}]dodeca-2,4,6-triene], the “TRP Activity (EC1.5)” value is “C (C (EC1.5>25 μM))” and the Emax is less than 150%.

As to `Cc1cc(-c2ccc3c(n2)N(C(=O)N2CCCC2)[C@H]2CCN3C2)ccn1` [(9S)-5-(2-methylpyridin-4-yl)-8-[(pyrrolidin-1-yl)carbonyl]-1,6,8-triazatricyclo[7.2.1.0 {2,7}]dodeca-2,4,6-triene], the “TRP Activity (EC1.5)” value is “C (C (EC1.5>25 μM))” and the Emax was less than 150%.

As for `Cc1cc(-c2ccc3c(n2)N(C(=O)N2CC[C@@H](C)C2)[C@H]2CCN3C2)ccn1` [(9S)-5-(2-methylpyridin-4-yl)-8-{[(3R)-3-methylpyrrolidin-1-yl]carbonyl}-1,6,8-triazatricyclo[7.2.1.0 {2,7}]dodeca-2,4,6-triene], the “TRP Activity (EC1.5)” value was “C (C (EC1.5>25 μM))” and the Emax is less than 150%.

In the case of `Cc1cc(-c2ccc3c(n2)N(C(=O)Nc2c[nH]nn2)[C@H]2CCN3C2)ccn1` [(9S)-5-(2-methylpyridin-4-yl)-N-(1H-1,2,3-triazol-4-yl)-1,6,8-triazatricyclo[7.2.1.0 {2,7}]dodeca-2(7),3,5-triene-8-carboxamide], the “TRP Activity (EC1.5)” value is “B (B (EC1.5 1-25 μM))” and the Emax was more than 150%.
